Where two headings read alike, the source gives them in different places. Square brackets hold non-standard residues; d marks the D form. Peptide text beside a SMILES is read from it. * marks the point of attachment. X1 = COc1cccc2c1C(=O)c1c(O)c3c(c(O)c1C2=O)C[C@@](O)(C(CO)=NNC(=O)CCCCCN1C(=O)CC(*)C1=O)C[C@@H]3O[C@H]1C[C@H](N)[C@H](O)[C@H](C)O1; Pra = C#CC[C@H](N)C(=O)O
Tests used:
NCI/ADR-RES cells [1] = experiment: Confocal microscopy internalization and colocalization; settings: 50 μM, 2 h
[2] = system: MCF-7 (breast cancer cell line); experiment: MTT cell growth inhibition, MCF-7; assay type: cell-based; settings: for E max (% inhibition): inhibition at highest concentration tested (100 μM), triplicate points
Description: (§1) The cell growth inhibition of each compound was evaluated using the MTT (3-[4,5-dimethylthiazol-2-yl]-2,5-diphenyltetrazolium bromide) assay. MCF-7 and MRC-5 cells were grown on a Minimum Essential Medium Eagle, while NCI-H460 and NCI/ADR-RES cells were grown on RPMI 1640 culture medium. All culture mediums were supplemented with 10% FBS (fetal bovine serum) and 1% penicillin-streptomycin-glutamine mix. […] MCF-7 (100,000 cells/mL), NCI-H460 (150,000 cells/mL), NCI/ADR-RES (150,000 cells/mL), or MRC-5 (100,000 cells/mL) cells were seeded the day before in sterile 96-well plates (100 μL/well). Then, cells were incubated with each concentration of the compound (100 μL/well) for the specified time for each cell line. The compounds were previously dissolved in DMSO and diluted at the time of the experiment with complete medium to the concentration to be tested. The DMSO content of each well was maintained at less than 1%. All concentrations were carried out with triplicate points, and controls with DMSO at the same proportion in which the compounds were dissolved were included in all experiments. After the incubation time, the samples were removed, and 100 μL of complete medium with 0.5 mg/mL MTT was added to each well. Cells were incubated for 4 h, and the medium was removed. The resulting formazan crystals were dissolved in DMSO (100 μL/well). The absorbance of each well at 595 nm was acquired with a Tecan Infinite F200Pro plate reader. A blank subtraction was performed (cells treated with Triton X-100), and the data were normalized to the value of the untreated cells (100% viability). Data were analyzed with GraphPad Prism software.

[3] = system: NCI-H460 (lung cancer cell line); settings: NCI-H460, 48 h incubation, MTT; for IC50: calculated only if E max > 50%; for E max (% inhibition): inhibition at highest concentration tested (100 μM)
Description: as §1

[4] = system: NCI/ADR-RES (doxorubicin-resistant ovarian cancer cell line); experiment: MTT cell growth inhibition, NCI/ADR-RES; assay type: cell-based; settings: for E max (% inhibition): inhibition at highest concentration tested (100 μM)
Description: as §1

NCI/ADR-RES cells [5] = experiment: Cell uptake by RP-HPLC of cell lysates; settings: 100 μM, 120 min, 37 °C minus 4 °C, ACN/H2O extraction, RP-HPLC 460 nm, normalized vs initial concentration incubated
Description: NCI/ADR-RES cells (10^6) were seeded in T-25 Flasks. After 24 h, the medium was removed, and a solution of DOX or CP1T NBD -DOX (100 μM) in culture medium (7 mL) was added. The cells were incubated for 120 min at 37 °C under a CO2 atmosphere (5%). Then, the medium was removed, and the cells were washed with cold PBS (3 × 3 mL). After washing, a mixture of ACN/H2O (1.5 mL, 80:20) was added to the flask and incubated overnight at 4 °C. Solvent samples were transferred to 1.5 mL Eppendorf and centrifuged at 12,000 g for 15 min at 4 °C, and the supernatant was evaporated to dryness. Analogous experiments were carried out by incubating the compounds at 4 °C for 120 min to determine the nonspecific binding to the cell membrane, since the uptake is decreased at this temperature. To evaluate the efficiency of solvent extraction, 10^6 cells were seeded in a T-25 Flask. […] The resulting lysates were analyzed by RP-HPLC by dissolving the Eppendorf samples in an aqueous solution of TFA (1%, 100 μL). All of the intracellular compound quantities were calculated from the detected area and divided by the efficiency of solvent extraction. Cell uptake was calculated by subtracting the intracellular compound quantity from the assay carried out at 37 °C from the quantity obtained at 4 °C and normalized to 100% vs the initial concentration incubated.

[6] = system: MRC-5 (human embryonic lung cell line); experiment: MTT cytotoxicity in noncancerous fibroblasts MRC-5; assay type: cell-based; settings: MRC-5 fibroblasts, 7 days incubation
[7] = system: NCI-H460 (lung cancer cell line); experiment: cells; settings: Homo sapiens, NCI-H460, 48 h
Description: as §1

[8] = MCF-7, 96 h incubation, MTT, 50% growth inhibition, calculated only if E max > 50%, read-out: IC50
[9] = NCI/ADR-RES, 72 h incubation, MTT
[10] = NCI/ADR-RES, 48 h incubation, MTT, calculated only if E max > 50%, read-out: IC50
[11] = NCI/ADR-RES, 72 h incubation, MTT, calculated only if E max > 50%, read-out: IC50
[12] = NCI/ADR-RES, 48 h incubation, MTT

Compound | cell internalization / localization by confocal microscopy (NCI/ADR-RES cells [1]) | IC50 [2, 8] [µM] | E max (% inhibition) ([2]; MCF-7, 96 h incubation, MTT) | IC50 [3] [µM] | E max (% inhibition) [3] [% inhibition] | E max (% inhibition) [4, 9] [% inhibition] | E max (% inhibition) [4, 12] [% inhibition] | also measured
C#CC[C@@H]1NC(=O)[C@@H](Cc2c[nH]c3ccccc23)NC(=O)[C@H](CO)NC(=O)[C@@H](CSC2CC(=O)N(CCCCCC(=O)NN=C(CO)[C@]3(O)Cc4c(O)c5c(c(O)c4[C@@H](O[C@H]4C[C@H](N)[C@H](O)[C@H](C)O4)C3)C(=O)c3c(OC)cccc3C5=O)C2=O)NC(=O)[C@H](CO)NC(=O)[C@@H](CCCNC(=N)N)NC(=O)[C@H](CCC(N)=O)NC(=O)[C@@H](CCCCN)NC1=O (stereo partly shown) [CP2-DOX] (cyclo(Q[dR]S[dC](X1)S[dW][Pra][dK])) | minimum cell internalization | 1.8 ± 0.2 | 80 ± 1 | 2.9 ± 0.3 | 92 ± 1 | 13 ± 1 | – | –
CCCCCCCCCCn1cc(C[C@@H]2NC(=O)[C@@H](Cc3c[nH]c4ccccc34)NC(=O)[C@H](CO)NC(=O)[C@@H](CSC3CC(=O)N(CCCCCC(=O)NN=C(CO)[C@]4(O)Cc5c(O)c6c(c(O)c5[C@@H](O[C@H]5C[C@H](N)[C@H](O)[C@H](C)O5)C4)C(=O)c4c(OC)cccc4C6=O)C3=O)NC(=O)[C@H](CO)NC(=O)[C@@H](CCCNC(=N)N)NC(=O)[C@H](CCC(N)=O)NC(=O)[C@@H](CCCCN)NC2=O)nn1 (stereo partly shown) [CP2T10-DOX] | cells with a colored nucleus | 2.6 ± 0.3 | 88 ± 1 | 1.7 ± 0.1 | 93 ± 1 | 64 ± 7 | – | IC50 [4, 10]: 33.4 ± 0.3 µM; IC50 [4, 11]: 21.8 ± 6.4 µM
CCCCCCCCCCn1cc(C[C@@H]2NC(=O)[C@@H](Cc3c[nH]c4ccccc34)NC(=O)[C@H](CO)NC(=O)[C@@H](CS)NC(=O)[C@H](CO)NC(=O)[C@@H](CCCNC(=N)N)NC(=O)[C@H](CCC(N)=O)NC(=O)[C@@H](CCCCN)NC2=O)nn1 [CP2T10] | – | – | 63 ± 1 | – | 80 ± 2 | – | 75 ± 2 | IC50 ([2]; 96 h): 50.2 ± 0.6 µM; IC50 ([4]; 48 h): 68.2 ± 4.6 µM
CCCCCCCCCCCCCCn1cc(C[C@@H]2NC(=O)[C@@H](Cc3c[nH]c4ccccc34)NC(=O)[C@H](CO)NC(=O)[C@@H](CSC3CC(=O)N(CCCCCC(=O)NN=C(CO)[C@]4(O)Cc5c(O)c6c(c(O)c5[C@@H](O[C@H]5C[C@H](N)[C@H](O)[C@H](C)O5)C4)C(=O)c4c(OC)cccc4C6=O)C3=O)NC(=O)[C@H](CO)NC(=O)[C@@H](CCCNC(=N)N)NC(=O)[C@H](CCC(N)=O)NC(=O)[C@@H](CCCCN)NC2=O)nn1 (stereo partly shown) [CP2T14-DOX] | – | – | – | – | – | 51 ± 4 | 39 ± 9 | IC50 [4, 11]: 8.2 ± 0.8 µM; E max (% inhibition) ([4]; NCI/ADR-RES, 72 h incubation, MTT, listed as CP2T 14 -DOX): good activity
C#CC[C@@H]1NC(=O)[C@@H](Cc2c[nH]c3ccccc23)NC(=O)[C@H](CO)NC(=O)[C@@H](CS)NC(=O)[C@H](CO)NC(=O)[C@@H](CCCNC(=N)N)NC(=O)[C@H](CCC(N)=O)NC(=O)[C@@H](CCCCN)NC1=O [CP2] (cyclo([Pra][dK]Q[dR]S[dC]S[dW])) | – | – | 48 ± 1 | – | 8 ± 1 | – | – | –
N.N.[Cl][Pt][Cl] [Cisplatin, cisplatin, reference compound] | – | 7.8 ± 0.6 | 78 ± 1 | 5.1 ± 0.6 | 53 ± 1 | – | 90 ± 1 | IC50 [4, 10]: 11.5 ± 0.6 µM
COc1cccc2c1C(=O)c1c(O)c3c(c(O)c1C2=O)C[C@@](O)(C(=O)CO)C[C@@H]3O[C@H]1C[C@H](N)[C@H](O)[C@H](C)O1 [DOX, doxorubicin] | no significant internalization | – | 86 ± 1 | – | 56 ± 1 | – | 36 ± 4 | cell uptake (NCI/ADR-RES cells [5]): 21.56%; cytotoxicity in MRC-5 [6]: significant cytotoxicity; IC50 ([2]; Homo sapiens, MCF7, MCF-7, 96 h incubation, MTT, 50% growth inhibition, calculated only if E max > 50%, read-out: IC50): 0.82 ± 0.1 µM; IC50 [7]: 9.3 ± 1.7 µM; E max (% inhibition) ([4]; NCI/ADR-RES, 48 h incubation, MTT, listed as doxorubicin): 36 % inhibition
